Results: ChEMBL document CHEMBL1145510, “SCO-1, a novel plasmid-mediated class A beta-lactamase with carbenicillinase characteristics from Escherichia coli” (Antimicrob Agents Chemother, 2007)
Converted amounts (≈) assume the structure as drawn.

What was measured:
[1] = tested on: Escherichia coli; assay: Antibacterial activity against Escherichia coli 3521r carrying pR352 encoding SCO1 by agar dilution technique; assay type: functional
[2] = tested on: Escherichia coli; assay: Antibacterial activity against Escherichia coli K12 carrying pR3521 encoding SCO1 by agar dilution technique; assay type: functional
[3] = tested on: Escherichia coli; assay: Antibacterial activity against Escherichia coli DH5-alpha carrying pSCO1 encoding SCO1 by agar dilution technique; assay type: functional; conditions: DH5alpha
[4] = tested on: Escherichia coli; assay: Antibacterial activity against Escherichia coli DH5-alpha by agar dilution technique; assay type: functional; conditions: DH5alpha
[5] = molecular target: T1, Beta-lactamase SCO-1 (Escherichia coli) (UniProt A1E3K9); assay: Activity of Escherichia coli beta-lactamase SCO1 relative to penicillin G
T1 sequence (whole entry): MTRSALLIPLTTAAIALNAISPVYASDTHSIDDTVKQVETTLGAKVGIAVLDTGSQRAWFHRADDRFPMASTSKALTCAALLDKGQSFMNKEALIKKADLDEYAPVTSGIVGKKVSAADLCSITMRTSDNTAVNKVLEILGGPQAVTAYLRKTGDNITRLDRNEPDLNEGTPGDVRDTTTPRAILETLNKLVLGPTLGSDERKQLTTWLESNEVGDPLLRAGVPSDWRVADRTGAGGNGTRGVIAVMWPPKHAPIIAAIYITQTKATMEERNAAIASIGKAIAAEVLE

[6] = tested on: Escherichia coli; assay: Activity of Escherichia coli K12 beta-lactamase CARB1 relative to penicillin G
[7] = molecular target: Beta-lactamase TEM (Escherichia coli) (UniProt P62593); assay: Activity of Escherichia coli K12 beta-lactamase TEM1 relative to penicillin G
[8] = molecular target: Beta-lactamase TEM (Escherichia coli) (UniProt P62593); assay: Inhibition of Escherichia coli TEM1
[9] = Inhibition of Escherichia coli K12 CARB1

Beta-lactamase TEM (Escherichia coli), sequence (P62593 whole entry): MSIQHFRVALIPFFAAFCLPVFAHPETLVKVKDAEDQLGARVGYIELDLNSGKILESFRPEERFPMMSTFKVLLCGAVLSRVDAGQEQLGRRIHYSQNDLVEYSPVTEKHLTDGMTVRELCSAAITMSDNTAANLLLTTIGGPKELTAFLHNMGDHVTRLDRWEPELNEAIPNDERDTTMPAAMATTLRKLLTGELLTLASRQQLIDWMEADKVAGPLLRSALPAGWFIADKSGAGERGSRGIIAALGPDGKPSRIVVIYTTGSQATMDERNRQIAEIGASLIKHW

Row | SMILES | MIC [1] | MIC [2] | MIC [3] | MIC [4] | Activity [5] | Activity [6] | Activity [7] | Activity [8] | IC50 [9]
1 | CC1(C)S[C@@H]2[C@H](NC(=O)C(C(=O)O)c3ccccc3)C(=O)N2[C@H]1C(=O)O (some centres undefined) [CARBENICILLIN] | 128 µg/mL (≈ 338 µM) | 64 µg/mL (≈ 169 µM) | 128 µg/mL (≈ 338 µM) | 1 µg/mL (≈ 2.64 µM) | 78 | 146 | 15 | – | –
2 | O=C(Cc1cccs1)N[C@@H]1C(=O)N2C(C(=O)[O-])=C(C[n+]3ccccc3)CS[C@H]12 | – | – | – | – | 21 | 15 | 154 | – | –
3 | CCN1CCN(C(=O)N[C@@H](C(=O)N[C@@H]2C(=O)N3[C@@H]2SC(C)(C)[C@@H]3C(=O)O)c2ccccc2)C(=O)C1=O [PIPERACILLIN] | 128 µg/mL (≈ 247 µM) | 64 µg/mL (≈ 124 µM) | 32 µg/mL (≈ 61.8 µM) | 2 µg/mL (≈ 3.86 µM) | – | – | – | – | –
4 | CO[C@@]1(NC(=O)Cc2cccs2)C(=O)N2C(C(=O)O)=C(COC(N)=O)CS[C@@H]21 [CEFOXITIN] | 8 µg/mL (≈ 18.7 µM) | 8 µg/mL (≈ 18.7 µM) | 2 µg/mL (≈ 4.68 µM) | 2 µg/mL (≈ 4.68 µM) | – | – | – | – | –
5 | CO/N=C(\C(=O)N[C@@H]1C(=O)N2C(C(=O)O)=C(COC(N)=O)CS[C@H]12)c1ccco1 [CEFUROXIME] | 32 µg/mL (≈ 75.4 µM) | 32 µg/mL (≈ 75.4 µM) | 1 µg/mL (≈ 2.36 µM) | 1 µg/mL (≈ 2.36 µM) | – | – | – | – | –
6 | CC1(C)S[C@@H]2[C@H](NC(=O)[C@H](N)c3ccc(O)cc3)C(=O)N2[C@H]1C(=O)O [AMOXICILLIN] | ≥ 256 µg/mL | ≥ 256 µg/mL | ≥ 256 µg/mL | 4 µg/mL (≈ 10.9 µM) | – | 100 | 108 | – | –
7 | CO/N=C(\C(=O)N[C@@H]1C(=O)N2C(C(=O)O)=C(COC(C)=O)CS[C@H]12)c1csc(N)n1 [CEFOTAXIME] | 8 µg/mL (≈ 17.6 µM) | 4 µg/mL (≈ 8.78 µM) | ≤ 0.12 µg/mL | ≤ 0.12 µg/mL | < 1 | < 1 | < 1 | – | –
8 | CO/N=C(\C(=O)N[C@@H]1C(=O)N2C(C(=O)[O-])=C(C[N+]3(C)CCCC3)CS[C@H]12)c1csc(N)n1 | – | 0.25 µg/mL (≈ 0.52 µM) | ≤ 0.12 µg/mL | ≤ 0.12 µg/mL | – | – | – | – | –
9 | CC1(C)S[C@@H]2[C@H](NC(=O)[C@H](C(=O)O)c3ccsc3)C(=O)N2[C@H]1C(=O)O [TICARCILLIN] | ≥ 256 µg/mL | ≥ 256 µg/mL | ≥ 256 µg/mL | 2 µg/mL (≈ 5.2 µM) | – | – | – | – | –
10 | O=C(O)[C@H]1/C(=C/CO)O[C@@H]2CC(=O)N21 [CLAVULANIC ACID] | – | – | – | – | – | – | – | 3 µM | 100 nM
11 | Cc1onc(-c2ccccc2)c1C(=O)N[C@@H]1C(=O)N2[C@@H]1SC(C)(C)[C@@H]2C(=O)O | – | – | – | – | 4 | 12 | – | – | –
12 | CC1(C)C(C(=O)O)N2C(=O)C[C@H]2S1(=O)=O (single isomer, unassigned) [SULBACTAM] | – | – | – | – | – | – | – | – | 5000 nM
13 | CC(=O)OCC1=C(C(=O)O)N2C(=O)[C@@H](NC(=O)Cc3cccs3)[C@H]2SC1 [CEPHALOTHIN] | ≥ 256 µg/mL | ≥ 256 µg/mL | 8 µg/mL (≈ 20.2 µM) | 2 µg/mL (≈ 5.04 µM) | 3 | 6 | 27 | – | –
14 | C[C@@H](O)[C@H]1C(=O)N2C(C(=O)O)=C(SCCNC=N)C[C@H]12 [IMIPENEM ANHYDROUS] | – | – | ≤ 0.12 µg/mL | ≤ 0.12 µg/mL | – | – | – | – | –
15 | CC(C)(O/N=C(\C(=O)N[C@@H]1C(=O)N2C(C(=O)[O-])=C(C[n+]3ccccc3)CS[C@H]12)c1csc(N)n1)C(=O)O [CEFTAZIDIME] | 32 µg/mL (≈ 58.5 µM) | 32 µg/mL (≈ 58.5 µM) | ≤ 0.12 µg/mL | ≤ 0.12 µg/mL | < 1 | < 1 | < 1 | – | –
16 | C[C@H]1[C@H](NC(=O)/C(=N\OC(C)(C)C(=O)O)c2csc(N)n2)C(=O)N1S(=O)(=O)O [AZTREONAM] | 1 µg/mL (≈ 2.3 µM) | 1 µg/mL (≈ 2.3 µM) | ≤ 0.12 µg/mL | ≤ 0.12 µg/mL | – | – | – | – | –
17 | CC1(C)S[C@@H]2[C@H](NC(=O)[C@H](N)c3ccccc3)C(=O)N2[C@H]1C(=O)O | – | – | – | – | 84 | – | – | – | –
18 | C[C@]1(Cn2ccnn2)[C@H](C(=O)O)N2C(=O)C[C@H]2S1(=O)=O [TAZOBACTAM] | – | – | – | – | – | – | – | – | 80 nM
